Data set [1] deals with MiaPaCa-2 (pancreatic cancer) cells. Briefly: Cell viability assay (CellTiter-Glo), lipofectamine transfection, MiaPaCa-2. The data set is classed as cell-based. The note with it: for Improvement of dose response over gemcitabine alone: MiaPaca2 cells; for Activity/efficacy in reducing cell viability: MiaPaCa-2 cells, FIG. 1. The procedure: All cell lines were obtained from ATCC (Rockville, MD). Cells were cultured in standard media supplemented with 10% FBS: Panc 10.05, H1299 and H358 in RPMI-1640 Medium, MiaPaCa-2, HT29 and MDA-MB-231 in DMEM, LS180 in EMEM. All media were obtained from ATCC (Rockville, MD). Cells were seeded in 384-well plates at a density of 0.3×10^3 to 1×10^3 cells/well. On the next day, cells were treated with serially diluted gemcitabine or siRNAs delivered by Lipofectamine RNAiMAX (Life Technologies, Carlsbad, CA). Ninety-six (96) hours after addition of gemcitabine or transfection reagent, the number of viable cells was determined using CellTiter-Glo(R)-2.0 reagent (Promega, Madison, WI) by measuring luminescent signal on a Cytation 5 plate reader (BioTek Inc, Winooski, VT). All values were compared to values generated for cells treated with non-silencing (NS) siRNA or to non-treated control and reported as the percentage cell viability. Values represent the mean±SD (n=4). All values were normalized to values generated for cells treated with a non-silencing siRNA and reported as the percentage cell viability. Calculation ofEC50 values. The EC50 values of the Gemcitabine, or Gemcitabine-modified siRNAs, (half-maximal effective concentration) were derived from a sigmoidal dose-response (variable slope) curve using GraphPad Prism 10.0.2(232) software (GraphPad Software, San Diego, Ca). Combination index (CI) calculation. […] CI=([…])2, where (Dx)1 and (Dx)2 are the doses of drug 1 and drug 2, alone, inhibiting 50%, whereas (D1) is the dose of drug 1 in combination, and (D2) the dose of drug 2 in combination that gives the experimentally observed 50% inhibition. These siRNA constructs were tested for their ability to reduce viability of pancreatic cancer using Miapaca2 cells after lipofectamine transfection of the siRNAs at varying concentrations. All of the constructs could inhibit the viability of these cells by 100% at concentrations below 100 nM. The contribution of the gemcitabine within the constructs was studied by making and evaluating constructs lacking the gemcitabine.
Background: In ATP-based viability assays light output follows the ATP content of the culture.

Another data set deals with H358 cells (KRAS G12C). Put plainly: Cell viability assay (CellTiter-Glo), lipofectamine transfection, H358. It is filed as cell-based. The protocol: (§1) All cell lines were obtained from ATCC (Rockville, MD). Cells were cultured in standard media supplemented with 10% FBS: Panc 10.05, H1299 and H358 in RPMI-1640 Medium, MiaPaCa-2, HT29 and MDA-MB-231 in DMEM, LS180 in EMEM. All media were obtained from ATCC (Rockville, MD).
(§2) Cells were seeded in 384-well plates at a density of 0.3×10^3 to 1×10^3 cells/well. On the next day, cells were treated with serially diluted gemcitabine or siRNAs delivered by Lipofectamine RNAiMAX (Life Technologies, Carlsbad, CA). Ninety-six (96) hours after addition of gemcitabine or transfection reagent, the number of viable cells was determined using CellTiter-Glo(R)-2.0 reagent (Promega, Madison, WI) by measuring luminescent signal on a Cytation 5 plate reader (BioTek Inc, Winooski, VT). All values were compared to values generated for cells treated with non-silencing (NS) siRNA or to non-treated control and reported as the percentage cell viability. Values represent the mean±SD (n=4). All values were normalized to values generated for cells treated with a non-silencing siRNA and reported as the percentage cell viability.
(§3) Calculation ofEC50 values. The EC50 values of the Gemcitabine, or Gemcitabine-modified siRNAs, (half-maximal effective concentration) were derived from a sigmoidal dose-response (variable slope) curve using GraphPad Prism 10.0.2(232) software (GraphPad Software, San Diego, Ca). […]

A further data set relates to H2030 (G12C) cells. Briefly: Cell viability assay, H2030. It is filed as cell-based. The protocol:
(§4) Cells were seeded in 384-well plates at a density of 0.3×10^3 to 1×10^3 cells/well. On the next day, cells were treated with serially diluted gemcitabine or siRNAs delivered by Lipofectamine RNAiMAX (Life Technologies, Carlsbad, CA). Ninety-six (96) hours after addition of gemcitabine or transfection reagent, the number of viable cells was determined using CellTiter-Glo(R)-2.0 reagent (Promega, Madison, WI) by measuring luminescent signal on a Cytation 5 plate reader (BioTek Inc, Winooski, VT). All values were compared to values generated for cells treated with non-silencing (NS) siRNA or to non-treated control and reported as the percentage cell viability. Values represent the mean±SD (n=4). All values were normalized to values generated for cells treated with a non-silencing siRNA and reported as the percentage cell viability. Calculation ofEC50 values. The EC50 values of the Gemcitabine, or Gemcitabine-modified siRNAs, (half-maximal effective concentration) were derived from a sigmoidal dose-response (variable slope) curve using GraphPad Prism 10.0.2(232) software (GraphPad Software, San Diego, Ca).

The test system of the next data set is A549 (G12S) cells. Briefly: Cell viability assay, A549. It is filed as cell-based. The procedure:
as §4

Another data set relates to H1299 (KRAS wt) cells. Put plainly: Cell viability assay (CellTiter-Glo), lipofectamine transfection, H1299. The data set is classed as cell-based. The protocol: as §1, §2, §3
In a further data set the test system is MDA-MB-231 (TNBC) cells. Briefly: Cell viability assay (CellTiter-Glo), lipofectamine transfection, MDA-MB-231. It is filed as cell-based. The note with it: MDA-MB-231 cells, FIG. 2K. The protocol:
as §4, with “All cell lines were obtained from ATCC (Rockville, MD). Cells were cultured in standard media supplemented with 10% FBS: Panc 10.05, H1299 and H358 in RPMI-1640 Medium, MiaPaCa-2, HT29 and MDA-MB-231 in DMEM, LS180 in EMEM. All media were obtained from ATCC (Rockville, MD). Cells” for “Cells”

Data set [2] deals with OVCAR-3 (ovarian cancer) cells. Briefly: Cell viability assay, lipofectamine transfection, OVCAR-3. The data set is classed as cell-based. Particulars: OVCAR-3 cells, FIG. 2L. The protocol:
as §4

The nature of data set [3]: PNP particle size and zeta potential by dynamic light scattering. The data set is classed as physicochemical. Also on record: Nanoparticle size: unit not given here. The note with it: for Nanoparticle size: siRNA formulated with HKP(+H), dynamic light scattering. The procedure: To test the efficacy of the products in vivo siRNAs (non-silencing siRNA (Control; NS), and PGN6) were formulated with a branched histidine lysine polymer (HKP (+H)) to form peptide nanoparticle (PNP) formulations were prepared using a microfluidic mixing system with a staggered herringbone patterned mixer (Precision NanoSystems, Vancouver, BC, Canada). HKP(+H) stock was prepared in water and diluted to appropriate concentrations. PolyGem siRNA or non-silencing (NS) siRNA stocks were prepared in water. The HKP(+H) and siRNA were mixed at a volume ratio of 1:1 at 8-10 mL/min total flow rate. Formulations were incubated for 30 min at room temperature. Particle size and zeta potential were then determined by dynamic light scattering with a Zetasizer Ultra (Malvern Panalytical, MA). A gel retardation assay was used to evaluate the efficiency of complex formation. Briefly, pre-formed PNPs were mixed with RNA loading dye and applied to 2% agarose gel. The gel was run in 0.5×TBE for 15 min. Electrophoretic mobility of the siRNA-nanoparticles was analyzed on a gel imaging system.

Where a name gives a salt, the structure may show the parent alone. d = 2'-deoxy (DNA); m = 2'-O-methyl; f = 2'-fluoro

A word on the IC50: it is the concentration that gives 50% inhibition.

With “PGN7: Chk1-targeting siRNA, 2′OMe/2′-fluoro modified, four gemcitabine nucleosides; SEQ ID Nos. 5-6 (chain 1 AAGAAAGAGAUCUGUAUCAAU; chain 2 AUUGAUACAGAUCUCUUUCUUCCUU; 2'-OMe/2'-F modified, four gemcitabine nucleosides, full pattern not given here)”, the “Improvement of dose response over gemcitabine alone” value in data set [1] is reported as 100 fold. Besides, the IC50 in the data set with H358 cells (KRAS G12C) was ~1 nM; in the data set with H2030 (G12C) cells, 3 nM; with A549 (G12S) cells, ~6 nM; with H1299 (KRAS wt) cells it was ~6 nM. Further, the “Activity/efficacy in reducing cell viability” value (in the data set with MDA-MB-231 (TNBC) cells; in data set [2]) was “greater potency” each time.

On to `Nc1ccn([C@@H]2O[C@H](CO)[C@@H](O)C2(F)F)c(=O)n1` [gemcitabine, 2′-deoxy-2′,2′-difluorocytidine monohydrochloride], for which the IC50 in data set [1] (Homo sapiens, MIA PaCa-2, MiaPaca-2 cells, 96 h, free gemcitabine or siRNA by lipofectamine) was > 10 nM.

With “PGN7S (sense AAGAAAGAGAUCUGUAUCAAU; antisense AUUGAUACAGAUCUCUUUCUUCCDUDU; gemcitabine nucleotides; phosphorothioates; 5' LS on antisense; modified_base 1 OTHER; 2'-O-methyl adenosine; modified_base 9 OTHER; 2'-fluoro-guanosine; modified_base 15 OTHER; 2'-fluorouracil; modified_base 21 OTHER; modified_base 16 OTHER; modified_base 6 OTHER; modified_base 17 OTHER; modified_base 19 OTHER; modified_base 5 OTHER; m; modified_base 3 um; modified_base 4 gm; modified_base 7 OTHER; 2)”, in data set [1], the “Activity/efficacy in reducing cell viability” value is “weaker activity than either PGN6 or PGN7”.

Consider “PGN6: Chk1-targeting siRNA, 2′OMe/2′-fluoro modified, four gemcitabine nucleosides; SEQ ID Nos. 3-4 (chain 1 AAGAAAGAGAUUCGUAUCAAU; chain 2 AUUGAUACAGAUCUCUUUCUUCCUU; 2'-OMe/2'-F modified, four gemcitabine nucleosides, full pattern not given here)”, for which the “Improvement of dose response over gemcitabine alone” value in data set [1] is on record as 100 fold. The “Activity/efficacy in reducing cell viability” value (in the data set with MDA-MB-231 (TNBC) cells; in data set [2]) was “greater potency” each time. Moreover, the Zeta potential in data set [3] (siRNA formulated in HKP(+H)) is given as 35.8 mV. In addition, the Nanoparticle size in data set [3] was determined as 86.7.

Turning to “PGN6 (no Gem): Modified Chk1 siRNA as PGN6 lacking gemcitabine; SEQ ID Nos. 7-8 (chain 1 AAGAAAGAGAUCUGUAUCAAU; chain 2 AUUGAUACAGAUCUCUUUCUUTT; chain 1: sugars from the 5' end mmmmmmfmffffmmmmmfmmm, backbone not given here; chain 2: sugars from the 5' end mfmmmfmmmmmmmfmffffffdd, backbone not given here; further chemistry not fully specified)”, the “Activity/efficacy in reducing cell viability” value in data set [1] was “did not show good efficacy at higher concentrations”.

As for “Non-Silencing: Non-silencing siRNA control; SEQ ID Nos. 1-2 (chain 1 CGAGCAGGGUAUCGACGAUUACAAA; chain 2 UUUGUAAUCGUCGAUACCCUGCUCG; RNA, backbone not given here; listed as Homo sapiens) [reference compound]”, the Nanoparticle size in data set [3] turned out to be 82.6.

Regarding “PGN7 (no Gem): Modified Chk1 siRNA as PGN7 lacking gemcitabine; SEQ ID Nos. 9-10 (chain 1 AAGAAAGAGAUCUGUAUCAAU; chain 2 AUUGAUACAGAUCUCUUUCUUTT; chain 1: sugars from the 5' end mmmmmmfmfffffmfmffmmf, backbone not given here; chain 2: sugars from the 5' end mfmmmfmmmmmfmfmfmfmfmdd, backbone not given here; further chemistry not fully specified)”, the “Activity/efficacy in reducing cell viability” value in data set [1] is “did not show good efficacy at higher concentrations”.
